Holding throughout (test): relative viability (nuclei count vs DMSO), 5 days (fraction); higher = more cells survive
Compound in assay [1]: CNC(=O)c1ccccc1Sc1ccc2c(/C=C/c3ccccn3)n[nH]c2c1 [Axitinib] + COc1cccc2cc(-c3nc([C@H]4CC[C@H](C(=O)O)CC4)n4ncnc(N)c34)[nH]c12 [OSI-027] (partner 0.5 µM)
The method in brief: (§1)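 Relative viability was taken as the ratio of nuclei in treated wells to nuclei in vehicle wells. Lung cancer cell lines in 1536-well plates received compounds by pin tool one day after seeding, either one drug alone or a fixed anchor-drug dose plus five library-drug doses (not always all listed) in √10 steps. Nuclei were counted on 4× images after 5 days of treatment, and values are medians of duplicate plates.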

Compound in assay [2]: CC1=CC=C(C=C1)C(=O)CN2C3=C(CCCC3)SC2=N [Pifithrin_alpha] + Cc1cc(Nc2cc(N3CCN(C)CC3)nc(Sc3ccc(NC(=O)C4CC4)cc3)n2)n[nH]1 [Tozasertib] (partner 0.1 µM)
Summed up:
as §1

Compound in assay [3]: Nc1nc(Nc2ccc3c(c2)CC[C@@H](N2CCCC2)CC3)nn1-c1cc2c(nn1)-c1ccccc1CCC2 [Bemcentinib] + CS(=O)(=O)N1CCN(Cc2cc3nc(-c4cccc5[nH]ncc45)nc(N4CCOCC4)c3s2)CC1 [Pictilisib] (partner 1 µM)
The method in brief:
as §1

Compound in assay [4]: Nc1nc(Nc2ccc3c(c2)CC[C@@H](N2CCCC2)CC3)nn1-c1cc2c(nn1)-c1ccccc1CCC2 [Bemcentinib] + O=C(CCCCCCC(=O)Nc1ccccc1)NO [Vorinostat] (partner 1 µM)
Summed up:
as §1

NCI-H2087: the relative viability is 0.622 in assay [1] (first compound 0.005 µM); 0.558 in assay [1] (first compound 0.01581 µM); 0.696 in assay [1] (first compound 0.05 µM); 0.562 in assay [1] (first compound 0.1581 µM); 0.831 in assay [1] (first compound 0.5 µM); 0.245 in assay [2] (first compound 1 µM). Moreover, the relative viability in assay [2] (first compound 3.162 µM) came to 0.422; in assay [2] (first compound 10 µM), 0.206; in assay [2] (first compound 100 µM), 0.152; in assay [3] (first compound 0.04 µM), 0.813; in assay [3] (first compound 0.1265 µM), 0.973; in assay [3] (first compound 0.4 µM) it was 1.03. Further, the relative viability in assay [3] (first compound 1.265 µM) was 0.813; in assay [3] (first compound 4 µM) it was 0.89; in assay [4] (first compound 0.04 µM), 0.567; in assay [4] (first compound 0.1265 µM), 0.836; in assay [4] (first compound 0.4 µM), 1.1; in assay [4] (first compound 1.265 µM), 0.665. In addition, the relative viability in assay [4] (first compound 4 µM) came to 0.678.
Turning to NCI-H2126, the relative viability in assay [1] (first compound 0.005 µM) is 0.685; in assay [1] (first compound 0.01581 µM), 0.766; in assay [1] (first compound 0.05 µM), 0.733; in assay [1] (first compound 0.1581 µM), 0.643; in assay [1] (first compound 0.5 µM) it was 0.667; in assay [2] (first compound 1 µM), 0.568. Further, the relative viability in assay [2] (first compound 3.162 µM) is 0.772; in assay [2] (first compound 10 µM), 0.602; in assay [2] (first compound 31.62 µM), 0.596; in assay [2] (first compound 100 µM), 0.432; in assay [3] (first compound 0.04 µM), 0.475; in assay [3] (first compound 0.1265 µM) it was 0.483. For the same cell line, the relative viability in assay [3] (first compound 0.4 µM) worked out at 0.531; in assay [3] (first compound 1.265 µM) it was 0.485; in assay [3] (first compound 4 µM), 0.485; in assay [4] (first compound 0.04 µM), 0.76; in assay [4] (first compound 0.1265 µM), 0.787; in assay [4] (first compound 0.4 µM), 0.791. For the same cell line, the relative viability in assay [4] (first compound 1.265 µM) was 0.812; in assay [4] (first compound 4 µM), 0.889.
Turning to NCI-H2170, the relative viability was 0.721 in assay [1] (first compound 0.005 µM); 0.686 in assay [1] (first compound 0.01581 µM); 0.703 in assay [1] (first compound 0.05 µM); 0.715 in assay [1] (first compound 0.1581 µM); 0.631 in assay [1] (first compound 0.5 µM); 0.624 in assay [2] (first compound 1 µM). Moreover, the relative viability is 0.704 in assay [2] (first compound 3.162 µM); 0.602 in assay [2] (first compound 10 µM); 0.541 in assay [2] (first compound 31.62 µM); 0.462 in assay [2] (first compound 100 µM); 0.267 in assay [3] (first compound 0.04 µM); 0.324 in assay [3] (first compound 0.1265 µM). In addition, the relative viability was 0.352 in assay [3] (first compound 0.4 µM); 0.259 in assay [3] (first compound 1.265 µM); 0.311 in assay [3] (first compound 4 µM); 0.732 in assay [4] (first compound 0.04 µM); 0.855 in assay [4] (first compound 0.1265 µM); 0.992 in assay [4] (first compound 0.4 µM). Also, the relative viability in assay [4] (first compound 1.265 µM) was found to be 0.745; in assay [4] (first compound 4 µM) it was 0.897.
For the cell line NCI-H2228, the relative viability in assay [1] (first compound 0.005 µM) stood at 0.518; in assay [1] (first compound 0.01581 µM), 0.611; in assay [1] (first compound 0.05 µM), 0.716; in assay [1] (first compound 0.1581 µM) it was 0.532; in assay [1] (first compound 0.5 µM), 0.659; in assay [2] (first compound 1 µM), 0.247. Besides, the relative viability in assay [2] (first compound 3.162 µM) was 0.147; in assay [2] (first compound 10 µM), 0.209; in assay [2] (first compound 31.62 µM) it was 0.154; in assay [2] (first compound 100 µM), 0.135; in assay [3] (first compound 0.1265 µM) it was 0.444; in assay [3] (first compound 0.4 µM), 0.479. Besides, the relative viability in assay [3] (first compound 1.265 µM) was 0.535; in assay [3] (first compound 4 µM), 0.343; in assay [4] (first compound 0.04 µM), 0.574; in assay [4] (first compound 0.1265 µM) it was 0.878; in assay [4] (first compound 0.4 µM), 0.763; in assay [4] (first compound 1.265 µM) it was 0.749. Further, in assay [4] (first compound 4 µM), the relative viability amounted to 0.756.
Consider NCI-H2347, for which the relative viability in assay [1] (first compound 0.005 µM) worked out at 0.482; in assay [1] (first compound 0.01581 µM), 0.407; in assay [1] (first compound 0.05 µM), 0.422; in assay [1] (first compound 0.1581 µM), 0.423; in assay [1] (first compound 0.5 µM), 0.51; in assay [2] (first compound 1 µM) it was 0.614. In addition, the relative viability in assay [2] (first compound 3.162 µM) came to 0.543; in assay [2] (first compound 10 µM), 0.382; in assay [2] (first compound 31.62 µM), 0.412; in assay [2] (first compound 100 µM), 0.501; in assay [3] (first compound 0.04 µM) it was 0.511; in assay [3] (first compound 0.1265 µM), 0.488. Besides, the relative viability came to 0.708 in assay [3] (first compound 0.4 µM); 0.82 in assay [3] (first compound 1.265 µM); 0.649 in assay [3] (first compound 4 µM); 0.544 in assay [4] (first compound 0.04 µM); 0.596 in assay [4] (first compound 0.1265 µM); 0.718 in assay [4] (first compound 0.4 µM). In addition, the values for the relative viability in assay [4] (first compound 1.265 µM) and in assay [4] (first compound 4 µM) were 0.67 and 0.575, respectively.
Regarding NCI-H2405, the relative viability worked out at 0.654 in assay [1] (first compound 0.005 µM); 0.666 in assay [1] (first compound 0.01581 µM); 0.675 in assay [1] (first compound 0.05 µM); 0.643 in assay [1] (first compound 0.1581 µM); 0.722 in assay [1] (first compound 0.5 µM); 0.708 in assay [2] (first compound 1 µM). Further, the relative viability in assay [2] (first compound 3.162 µM) was found to be 0.697; in assay [2] (first compound 10 µM), 0.573; in assay [2] (first compound 31.62 µM), 0.573; in assay [2] (first compound 100 µM), 0.627; in assay [3] (first compound 0.04 µM), 0.392; in assay [3] (first compound 0.1265 µM) it was 0.513. Moreover, the relative viability in assay [3] (first compound 0.4 µM) was determined as 0.415; in assay [3] (first compound 1.265 µM), 0.517; in assay [3] (first compound 4 µM), 0.509; in assay [4] (first compound 0.04 µM), 0.991; in assay [4] (first compound 0.1265 µM), 1.07; in assay [4] (first compound 0.4 µM), 1.1. Besides, the relative viability in assay [4] (first compound 1.265 µM) amounted to 1.08; in assay [4] (first compound 4 µM), 1.06.
NCI-H3122: the relative viability was determined as 0.959 in assay [1] (first compound 0.005 µM); 0.946 in assay [1] (first compound 0.01581 µM); 1.01 in assay [1] (first compound 0.05 µM); 0.709 in assay [1] (first compound 0.1581 µM); 1.02 in assay [1] (first compound 0.5 µM); 0.438 in assay [2] (first compound 1 µM). Besides, the relative viability amounted to 0.325 in assay [2] (first compound 3.162 µM); 0.375 in assay [2] (first compound 10 µM); 0.44 in assay [2] (first compound 100 µM); 0.234 in assay [3] (first compound 0.04 µM); 0.62 in assay [3] (first compound 0.1265 µM); 0.579 in assay [3] (first compound 0.4 µM). Also, the relative viability in assay [3] (first compound 1.265 µM) amounted to 0.699; in assay [3] (first compound 4 µM), 0.646; in assay [4] (first compound 0.04 µM), 0.548; in assay [4] (first compound 0.1265 µM), 1.07; in assay [4] (first compound 0.4 µM) it was 1.11; in assay [4] (first compound 1.265 µM) it was 1.06. The relative viability in assay [4] (first compound 4 µM) is 0.983.

The record behind these values is the supplement of paper PMC10307832.
